Where two headings read alike, the source gives them in different places.
Experiments:
[1] = test system: Chagas disease; set-up: method as in PMID 29357372; details: cited from earlier work
[2] = test system: T. cruzi Sir2-related protein 1 (TcSir2rp1); set-up: method as in PMID 29357372, PMID 19937668; details: cited from earlier work
[3] = biological target: T1, TcSir2 (Trypanosoma cruzi, UniProt Q4DP02); assay: Recombinant TcSir2 activity assay (fluorescent peptide deacetylation); format: biochemical; details: for IC50: recombinant TcSir2 0.1 μM, 10 μM peptide, 25 μM NAD+, 37 °C, ND = values measured but did not converge IC50 significantly
T1 sequence (Q4DP02 1-359): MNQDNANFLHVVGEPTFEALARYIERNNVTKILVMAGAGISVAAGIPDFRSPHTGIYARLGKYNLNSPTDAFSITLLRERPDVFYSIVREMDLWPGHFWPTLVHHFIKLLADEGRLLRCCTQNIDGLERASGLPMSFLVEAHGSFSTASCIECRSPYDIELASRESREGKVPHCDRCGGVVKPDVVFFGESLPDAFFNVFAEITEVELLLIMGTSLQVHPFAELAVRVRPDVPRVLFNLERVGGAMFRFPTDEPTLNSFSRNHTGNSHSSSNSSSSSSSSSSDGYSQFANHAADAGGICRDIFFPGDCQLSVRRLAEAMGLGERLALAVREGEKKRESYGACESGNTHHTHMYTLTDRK
From the text: The peptide substrate (Abz-Gly-Pro-AcetylLys-Ser-Gln-EDDnp, where Abz stands for ortho-aminobenzoic), based on the TcSir2 specificity, was acquired from AminoTech (São Paulo, Brazil). This substrate contains an acetyl-Lys, which is available for trypsin cleavage only when the TcSir2 deacetylates the lysine side chain. After peptide deacetylation and cleavage, the fluorescent moiety (Abz) and the EDDnp suppressor group (N-[2,4-dinitrophenyl] ethylenediamine) are separated, and fluorescence (420 nm) can occur upon excitation at 320 nm. The TcSir2 activity assays were performed at 37 °C in a 25 mM Tris-HCl buffer with pH 8 and containing 137 mM NaCl, 2.7 mM KCl, and 1 mM MgCl2. The assays used 0.1 μM purified TcSir2 enzyme, 10 μM Abz-Gly-Pro-AcetylLys-Ser-Gln-EDDnp peptide, and 25 μM NAD^+ cofactor. After a 15 min incubation, 12 mM nicotinamide and 0.6 mg/mL trypsin (Sigma Aldrich, Sao Paulo, Brazil, N3376) were added to stop the reaction and cleave the deacetylated peptide (30 min at 37 °C). A control was also prepared without trypsin to detect the baseline fluorescence of the uncleaved peptide. Increasing concentrations of the putative inhibitory compound prepared in DMSO were also tested under the same conditions, with controls to detect the potential effect of DMSO at a maximum concentration of 5% (v/v) on TcSir2. Fluorescence was measured using a TECAN-InfinityPro2000 plate reader.
The percentage of inhibition data was calculated using the equation: Inhibition (%) = (1 − vi/vc) × 100, where vi represents the initial rate in the presence of the putative TcSir2 inhibitor, and vc is the initial rate of the control assay containing only DMSO. IC50 values were calculated based on the percentage of inhibition and concentration of the inhibitor using non-linear regression with least squares on GraphPad Prism (v8.1, GraphPad software, La Jolla, CA, USA). […] Km and Vmax in the presence and absence of the inhibitor were obtained by fitting the initial rate and [NAD^+] into the Michaelis-Menten equation on GraphPad Prism (GraphPad Prism version v8.1, for Windows, GraphPad Software, San Diego, California USA, www.graphpad.com).
Supplementary methods – Enzyme kinetic characterisation
The enzyme kinetic assay for TcSir2, based on a previous publication1 was divided into three steps. In the first one, the recombinant TcSir2, NAD+ and the peptide substrate (Abz-Gly-Pro-AcetylLys-Ser-Gln-EDDnp) were incubated for 15 min at 37° C.
In the second step, in order to stop the reaction, 12 mM nicotinamide was added to the reaction medium. Finally in the third step trypsin was added and the reaction medium incubated for 30 min at 37° C, as previously described1. Trypsin cleaves this substrate in the linkage between lysine and serine only when the acetyl moiety had been previously […]
when lysine was acetylated2. […]
r2 = 0.99, Fig. S5a) and the peptide substrate (2.1 µM, r2 = 0.97, Fig. S5b) were determined using seven different substrate concentrations, whereas one of them was kept constant.

[4] = test system: T. cruzi amastigote; assay: In vitro trypanocidal activity with amastigote forms (Tulahuen LacZ, CPRG); format: cell-based, Trypanosoma cruzi; details: intracellular amastigotes in LLCMK2 cells, ND* = values measured but did not converge IC50 significantly, read-out: IC50 T. cruzi ama
Protocol: In 96-well plates, cells from the LLCMK2 lineage were seeded at a concentration of 5 × 10^4 cells/mL (80 μL). The trypomastigote forms of the Tulahuen LacZ strain were added at a concentration of 5 × 10^5 cells/mL (in a total of 20 μL) and, subsequently incubated for 24 h at 37 °C with a 5% CO2 atmosphere. Next, the trypomastigote forms present in the supernatant were washed, leaving only the amastigote forms. Serial dilutions of the compounds were added (1.95 to 200 µM) and the plate was incubated for 72 h at 37 °C with a 5% CO2 atmosphere. At the end of this period, the CPRG substrate (chlorophenol red β-D-galactopyranoside, 400 μM in 0.3% Triton X-100, pH 7.4) was added and incubated for additional 6 h. After incubation, the sample’s absorbance values were measured using a spectrophotometer at 570 nm.

[5] = Mammalian cell viability assay (MTT); format: cell-based; details: rhesus monkey; LLCMK2 cells, MTT, 72 h; ND* = values measured but did not converge IC50 significantly; read-out: EC50 Cell Toxicity
Protocol: (§1) LLCMK2 cells were maintained in RPMI-1640 medium supplemented with 10% fetal bovine serum (FBS) (Gibco, Carlsbad, CA, USA), penicillin/streptomycin (100 μg.mL^−1 and 0.1 mg.mL^−1, respectively, Sigma-Aldrich, St. Louis, Mo, USA) and 2 mM L-glutamine, and treated every second day. […] All cells were maintained in humidified CO2 at 37 °C. Cells were obtained at the third passage, propagated, and used in experiments between the fourth and fifth passages. Cells were routinely checked for contamination with mycoplasma by PCR. […] The principle of this method, as described by Mosmann et al., consists in measuring the cellular viability of the enzymatic activity of […] of living cells. […] At the end of the period incubation. 50 μL MTT (Sigma-Aldrich Corp. St. Louis, MO, USA) at the concentration of 2 mg.mL^−1. After 4 h incubation, 50 μL DMSO per well was added to dissolve formazan blue crystals. The absorbance was determined at 570 nm using Biotek Synergy HT microplate spectrophotometer. The percentage of cell viability was determined from the following formula (40): Cell Viability (%) = (Treatment Absorbance)/(Control Absorbance negative) × 100.

[6] = test system: LLCMK2 cells; assay: Mammalian cell viability assay (MTT); format: cell-based; details: Macaca mulatta, LLC-MK2, Figure 4g; read-out: IC50 mammalian cell-lines
Protocol: as §1

[7] = substrate: NC(=O)c1ccc[n+](C2OC(COP(=O)([O-])OP(=O)(O)OCC3OC(n4cnc5c(N)ncnc54)C(O)C3O)C(O)C2O)c1; assay: Recombinant TcSir2 activity assay (fluorescent peptide deacetylation); format: biochemical, Trypanosoma cruzi; details: other: TcSir2, r2 = 0.99; pH 8.0; 37.0 °C
From the text: The peptide substrate (Abz-Gly-Pro-AcetylLys-Ser-Gln-EDDnp, where Abz stands for ortho-aminobenzoic), based on the TcSir2 specificity, was acquired from AminoTech (São Paulo, Brazil). This substrate contains an acetyl-Lys, which is available for trypsin cleavage only when the TcSir2 deacetylates the lysine side chain. After peptide deacetylation and cleavage, the fluorescent moiety (Abz) and the EDDnp suppressor group (N-[2,4-dinitrophenyl] ethylenediamine) are separated, and fluorescence (420 nm) can occur upon excitation at 320 nm. The TcSir2 activity assays were performed at 37 °C in a 25 mM Tris-HCl buffer with pH 8 and containing 137 mM NaCl, 2.7 mM KCl, and 1 mM MgCl2. […] A control was also prepared without trypsin to detect the baseline fluorescence of the uncleaved peptide. […] Fluorescence was measured using a TECAN-InfinityPro2000 plate reader.
The percentage of inhibition data was calculated using the equation: Inhibition (%) = (1 − vi/vc) × 100, where vi represents the initial rate in the presence of the putative TcSir2 inhibitor, and vc is the initial rate of the control assay containing only DMSO. IC50 values were calculated based on the percentage of inhibition and concentration of the inhibitor using non-linear regression with least squares on GraphPad Prism (v8.1, GraphPad software, La Jolla, CA, USA). […]

[8] = Trypanosoma cruzi, LLC-MK2, 72 h

In the case of `O=C1c2cccc3cccc(c23)C(=O)N1CCCNCCCCNCCCNCCCN1C(=O)c2cccc3cccc(c23)C1=O` [BNIP-spermidine, bisnaphthalimidopropyl-spermidine], the “performance in the mouse model of Chagas disease” value [1] is given as “performed poorly” and the “inhibition of NAD+-dependent deacetylase activity” value [2] is given as “inhibition”.

`O=C(Cn1ccnc1[N+](=O)[O-])NCc1ccccc1` [BZN, benznidazole, reference compound] showed an IC50 ([3]; read-out: IC50 (TcSir2)) of 9.33 ± 0.01 µM, an IC50 [4, 8] of 4.55 ± 0.03 µM and an EC50 at 72 h [5] of 204.1 ± 0.81 µM.

Work on `O=C(NCc1coc(-c2ccccc2)n1)Nc1ccc(-c2noc(C(F)(F)F)n2)cc1` [CDMS-01] yielded a Ki [3] of 21.5 µM, a Vmax ([3]; 3 µM CDMS-01) of 0.29 µM and a Vmax ([3]; 5 µM CDMS-01) of 0.29 µM. The Vmax ([3]; 10 µM CDMS-01) was 0.29 µM, the Vmax ([3]; 17 µM CDMS-01) was 0.29 µM and the Vmax ([3]; 20 µM CDMS-01) was 0.29 µM. The Vmax ([3]; 30 µM CDMS-01) was 0.29 µM, the Vmax ([3]; 40 µM CDMS-01) was 0.29 µM and the IC50 ([3]; IC50 (TcSir2)) was 40 µM. For the same molecule, the inhibition mechanism ([3]; effect on apparent Km and Vmax for NAD+) was “competitive”, the IC50 [4, 8] was 76.7 µM and the IC50 ([4]; 72 h) was 76.68 ± 0.02 µM. The EC50 at 72 h [5] was 135.9 ± 0.5 µM and the IC50 [6] was 136 µM.

In the case of `NC(=O)c1cccnc1` [Nicotinamide, reference compound], the IC50 ([3]; IC50 (TcSir2)) is listed as 987.4 ± 0.64 µM and the “inhibition of NAD+-dependent deacetylase activity” value [2] is listed as “inhibition”.

Abz-Gly-Pro-AcetylLys-Ser-Gln-EDDnp gave a Km ([3]; TcSir2, r2 = 0.97, read-out: Km for the peptide substrate) of 2100 nM.

B1: TcSir2 (Trypanosoma cruzi strain CL Brener) (protein)
chain: T1 sequence (Q4DP02 1-359)
B1 gave a Km [7] of 25 µM.

Reference: publication PMC10057528, “Trypanosoma cruzi Sirtuin 2 as a Relevant Druggable Target: New Inhibitors Developed by Computer-Aided Drug Design” (Pharmaceuticals, 2023)
